The series in a line: Recrystallization of CoQ10 from warm oil/alcohol solution on cooling to room temperature. It counts as physicochemical. The following applies: cooled to room temperature (25° C.). As for the experimental part: (§1) 30 g of lecithin were dissolved in 100 g of alcohol and added with stirring to 520 g of water and 200 g of glycerin. 10 g of Coenzyme Q10 (ubichinone) [CoQ10] were dissolved at 40° C. in 40 g of vegetable oil and 100 g of alcohol (ethanol). […] Therefore, the CoQ10 solution, having a temperature of 40° C., was added to the lecithin/alcohol/glycerin/water mixture and then homogenized six times at 1200 bar (1.2·10^8 Pa) using a high pressure homgenizer of Microfluidics Corp (MT 110®), Thereby, the alcohol was homogeneously distributed in the nanoemulsion. An orange transparent nanoemulsion was obtained.
as §1, with “50 g” for “30 g”, “to 430” for “to 520”, “glycerin. 80” for “glycerin. 10”, “at 45°” for “at 40°”, “pressure homogenizer” for “pressure homgenizer”, “(MT 110®).” for “(MT 110®),”

With `COC1=C(OC)C(=O)C(C/C=C(\C)CC/C=C(\C)CC/C=C(\C)CC/C=C(\C)CC/C=C(\C)CC/C=C(\C)CC/C=C(\C)CC/C=C(\C)CC/C=C(\C)CCC=C(C)C)=C(C)C1=O` [CoQ10, Coenzyme Q10], the “behaviour of CoQ10 solution on cooling” value (10 g CoQ10 dissolved at 40° C. in 40 g vegetable oil and 100 g alcohol) is listed as “most of the CoQ10 recrystallizes out from the solution after some hours”; the “behaviour of CoQ10 solution on cooling” value (80 g CoQ10 dissolved at 45° C. in 40 g vegetable oil and 100 g alcohol) is given as “most of the CoQ10 recrystallized out from the solution after some hours”.

These data come from US20050048088A1, “Compositions comprising at least two nanoemulsions” (priority 2003, published 2005).
